In US20250302972A1, “FORMULATION” (ENA Respiratory Pty Ltd, priority 2021, published 2025):
Where “and” joins values, the source holds several entries; their conditions need not be identical. Identical values can stand only once.

Tests used:
Type in all cases: cell-based
human TLR2 = biological target: T1, human TLR2 (Homo sapiens, UniProt O60603); assay: HEK-Blue hTLR2 Dose Response (NF-κB SEAP reporter); settings: for stimulatory (agonist) activity for hTLR2: HEK-Blue hTLR2
T1 construct: expressed in transfected cells; host or cells: HEK-Blue hTLR2
T1 sequence (O60603 21-784): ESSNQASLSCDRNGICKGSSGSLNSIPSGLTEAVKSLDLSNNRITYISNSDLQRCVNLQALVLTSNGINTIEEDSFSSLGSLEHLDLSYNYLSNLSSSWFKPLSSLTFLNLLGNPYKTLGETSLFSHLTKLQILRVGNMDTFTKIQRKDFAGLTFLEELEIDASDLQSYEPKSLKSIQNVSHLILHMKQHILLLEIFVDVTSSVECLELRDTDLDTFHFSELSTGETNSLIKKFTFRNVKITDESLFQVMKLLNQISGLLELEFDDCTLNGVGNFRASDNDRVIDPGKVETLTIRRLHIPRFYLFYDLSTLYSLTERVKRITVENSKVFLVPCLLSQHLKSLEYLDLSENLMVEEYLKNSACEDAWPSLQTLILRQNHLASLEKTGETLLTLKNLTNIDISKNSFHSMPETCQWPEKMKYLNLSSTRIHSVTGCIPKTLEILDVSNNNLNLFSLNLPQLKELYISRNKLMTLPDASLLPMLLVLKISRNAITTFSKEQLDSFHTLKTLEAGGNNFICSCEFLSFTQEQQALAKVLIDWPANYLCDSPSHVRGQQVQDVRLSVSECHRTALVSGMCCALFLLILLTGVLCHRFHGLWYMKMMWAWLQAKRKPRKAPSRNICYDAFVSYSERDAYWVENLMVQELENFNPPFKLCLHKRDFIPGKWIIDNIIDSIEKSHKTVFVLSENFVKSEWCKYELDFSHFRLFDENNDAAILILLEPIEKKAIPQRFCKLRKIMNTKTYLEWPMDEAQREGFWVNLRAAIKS
T1 sequence (Q9Y2C9 32-796 partner): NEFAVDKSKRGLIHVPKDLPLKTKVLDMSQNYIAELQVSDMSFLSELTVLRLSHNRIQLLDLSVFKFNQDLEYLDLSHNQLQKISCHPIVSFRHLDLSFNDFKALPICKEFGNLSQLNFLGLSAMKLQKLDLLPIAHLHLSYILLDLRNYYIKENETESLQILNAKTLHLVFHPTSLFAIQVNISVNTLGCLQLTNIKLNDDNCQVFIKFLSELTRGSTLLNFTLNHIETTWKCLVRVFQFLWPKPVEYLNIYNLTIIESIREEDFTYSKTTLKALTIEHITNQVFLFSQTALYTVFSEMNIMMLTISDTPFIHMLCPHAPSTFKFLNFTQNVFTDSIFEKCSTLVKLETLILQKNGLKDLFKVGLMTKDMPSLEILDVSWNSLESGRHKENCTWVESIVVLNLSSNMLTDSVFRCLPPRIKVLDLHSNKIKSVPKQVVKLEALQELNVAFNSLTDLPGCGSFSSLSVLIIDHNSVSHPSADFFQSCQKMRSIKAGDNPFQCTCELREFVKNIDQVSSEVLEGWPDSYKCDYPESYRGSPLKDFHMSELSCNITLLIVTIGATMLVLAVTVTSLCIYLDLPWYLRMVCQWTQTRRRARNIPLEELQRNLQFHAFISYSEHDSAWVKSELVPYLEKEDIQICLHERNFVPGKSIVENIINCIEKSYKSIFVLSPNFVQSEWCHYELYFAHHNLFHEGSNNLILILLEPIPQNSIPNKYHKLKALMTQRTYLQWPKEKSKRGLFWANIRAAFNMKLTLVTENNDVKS
Protocol: (§1) Toll-Like Receptor (TLR) stimulation is tested by assessing NF-κB activation in the TLR expressing cell lines. HEK-Blue h/mTLR2 cells have been stably transfected with human or mouse TLR2 and CD14. The activity of the test articles are tested on human and mouse TLR2, as potential agonists. The test articles are evaluated at seven concentrations and compared to control ligands (see list below). These steps are performed in triplicate.
[…] Starting from the 5 μg/mL working stock, a series of six 1:4 serial dilutions were made by mixing 100 μL of the previous highest dilution with 300 μL sterile PBS.
(§2) The secreted embryonic alkaline phosphatase (SEAP) reporter is under the control of a promoter inducible by the transcription factor NF-κB. This reporter gene allows the monitoring of signaling through the TLR, based on the activation of NF-κB. In a 96-well plate (200 μL total volume) containing the appropriate cells (50,000-75,000 cells/well), 20 μL of the test article or the positive control ligand (HKLC) is added to the wells. The media added to the wells is designed for the detection of NF-κB induced SEAP expression. After a 16-24-hour incubation the optical density (OD) is read at 650 nm on a Molecular Devices SpectraMax 340PC absorbance detector.

HEK-Blue Null1 cells = assay: HEK-Blue Null1 control cell line (control for human TLR2); settings: TLR2-free control cells
Protocol: as §2

mouse TLR2 = biological target: T2, mouse TLR2 (Mus musculus, UniProt Q9QUN7); assay: HEK-Blue mTLR2 Dose Response (NF-κB SEAP reporter)
T2 construct: expressed in transfected cells; host or cells: HEK-Blue mTLR2
T2 sequence (Q9QUN7 25-784): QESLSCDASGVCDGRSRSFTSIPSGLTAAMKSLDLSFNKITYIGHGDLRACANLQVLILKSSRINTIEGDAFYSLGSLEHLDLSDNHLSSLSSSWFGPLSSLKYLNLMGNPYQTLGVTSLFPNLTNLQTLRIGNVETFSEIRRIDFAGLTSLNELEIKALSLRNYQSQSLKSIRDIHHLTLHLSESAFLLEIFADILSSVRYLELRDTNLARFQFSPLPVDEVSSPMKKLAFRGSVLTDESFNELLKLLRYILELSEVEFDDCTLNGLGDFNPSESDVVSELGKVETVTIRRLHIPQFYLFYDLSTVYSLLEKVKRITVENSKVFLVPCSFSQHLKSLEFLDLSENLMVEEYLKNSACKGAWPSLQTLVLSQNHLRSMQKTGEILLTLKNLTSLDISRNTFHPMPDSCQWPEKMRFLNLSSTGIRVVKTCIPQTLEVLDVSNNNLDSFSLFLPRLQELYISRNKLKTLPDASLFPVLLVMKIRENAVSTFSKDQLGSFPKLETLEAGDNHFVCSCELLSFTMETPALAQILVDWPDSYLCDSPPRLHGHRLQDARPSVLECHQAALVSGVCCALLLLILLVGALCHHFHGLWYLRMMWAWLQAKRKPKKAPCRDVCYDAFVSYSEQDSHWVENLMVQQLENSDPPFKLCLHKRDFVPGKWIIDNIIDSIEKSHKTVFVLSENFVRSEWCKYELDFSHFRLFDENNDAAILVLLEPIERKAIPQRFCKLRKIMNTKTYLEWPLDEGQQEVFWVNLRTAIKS
T2 sequence (Q9Y2C9 32-796 partner): as the sequence (Q9Y2C9 32-796 partner) above
Protocol: as §1
A 5 μg/mL working stock was then prepared for each compound from the 20 μg/mL dilution in sterile PBS. Starting from the 5 μg/mL working stock, a series of six 1:4 serial dilutions were made by mixing 100 μL of the previous highest dilution with 300 μL sterile PBS.
as §2

HEK-Blue Null2 cells = assay: HEK-Blue Null2 control cell line (control for mouse TLR2); settings: TLR2-free control cells
Protocol: as §2

| optical density (650 nm), Average (human TLR2; 0.12 pg/mL) | optical density (650 nm), screenings 1-3 (human TLR2; 0.12 pg/mL) | optical density (650 nm), Average (human TLR2; 0.49 pg/mL) | optical density (650 nm), screenings 1-3 (human TLR2; 0.49 pg/mL) | optical density (650 nm), Average (human TLR2; 1.95 pg/mL) | optical density (650 nm), screenings 1-3 (human TLR2; 1.95 pg/mL) | optical density (650 nm), Average (human TLR2; 7.81 pg/mL) | optical density (650 nm), screenings 1-3 (human TLR2; 7.81 pg/mL) | optical density (650 nm), Average (human TLR2; 31.25 pg/mL) | optical density (650 nm), screenings 1-3 (human TLR2; 31.25 pg/mL) | optical density (650 nm), Average (human TLR2; 125 pg/mL) | optical density (650 nm), screenings 1-3 (human TLR2; 125 pg/mL) | Fold Induction (human TLR2; 500 pg/mL) | optical density (650 nm), Average (human TLR2; 500 pg/mL) | optical density (650 nm), screenings 1-3 (human TLR2; 500 pg/mL) | stimulatory (agonist) activity for hTLR2 (human TLR2) | stimulatory (agonist) activity for mTLR2 (mouse TLR2) | Fold Induction (ratio of average induced value to average non-induced value) (human TLR2; 0.12 pg/mL) | Structure (SMILES) | stimulatory response in HEK-Blue Null1 (human) cells (HEK-Blue Null1 cells) | stimulatory response in HEK-Blue Null2 (mouse) cells (HEK-Blue Null2 cells) | further results |
| --- | --- | --- | --- | --- | --- | --- | --- | --- | --- | --- | --- | --- | --- | --- | --- | --- | --- | --- | --- | --- | --- |
| 0.823 | 0.826 and 0.869 and 0.774 | 1.342 | 1.256 and 1.364 and 1.406 | 2.018 | 1.994 and 2.061 and 2.000 | 2.562 | 2.569 and 2.545 and 2.571 | 2.744 | 2.820 and 2.720 and 2.691 | 2.814 | 2.928 and 2.800 and 2.713 | 33.9 | 2.759 | 2.722 and 2.765 and 2.791 | possesses stimulatory activity | possesses stimulatory activity |  | CCCCCCCCCCCCCC[C@@H](C)C(=O)OCC[C@H](CSC[C@H](N)C(=O)N[C@@H](CO)C(=O)NCCOCCOCCOCCOCCOCCOCCOCCOCCOCCOCCOCCOCCOCCOCCOCCOCCOCCOCCOCCOCCOCCOCCOCCOCCOCCOCCOCCOCCC(=O)NCC(N)=O)OC(=O)[C@H](C)CCCCCCCCCCCCCC [B14] | not observed | not observed |  |
| 1.928 | 1.936 and 1.856 and 1.992 | 2.243 | 2.345 and 2.229 and 2.154 | 2.465 | 2.469 and 2.420 and 2.507 | 2.565 | 2.326 and 2.636 and 2.734 | 2.652 | 2.563 and 2.643 and 2.751 | 2.735 | 2.746 and 2.716 and 2.743 | 35.1 | 2.668 | 2.648 and 2.664 and 2.693 | possesses stimulatory activity | possesses stimulatory activity | 25.4 | CCCCCCCCCCCCCC[C@H](C)C(=O)OC[C@H](CSC[C@H](N)C(=O)N[C@@H](CO)C(=O)NCCOCCOCCOCCOCCOCCOCCOCCOCCOCCOCCOCCOCCOCCOCCOCCOCCOCCOCCOCCOCCOCCOCCOCCOCCOCCOCCOCCOCCC(=O)NCC(N)=O)OC(=O)[C@@H](C)CCCCCCCCCCCCCC [B8] | not observed | not observed | Fold Induction (human TLR2; 0.49 pg/mL): 29.5; Fold Induction (human TLR2; 1.95 pg/mL): 32.4; Fold Induction (human TLR2; 7.81 pg/mL): 33.8; Fold Induction (human TLR2; 31.25 pg/mL): 34.9; Fold Induction (human TLR2; 125 pg/mL): 36 |
| 0.679 | 0.591 and 0.742 and 0.704 | 1.156 | 1.230 and 1.151 and 1.088 | 1.785 | 1.755 and 1.776 and 1.824 | 2.186 | 2.154 and 2.186 and 2.219 | 2.529 | 2.512 and 2.527 and 2.547 | 2.470 | 2.522 and 2.466 and 2.422 | 36.6 | 2.637 | 2.649 and 2.606 and 2.656 | possesses stimulatory activity | possesses stimulatory activity | 9.4 | CCCCCCCCCCCCCC[C@@H](C)C(=O)OC[C@H](CSC[C@H](N)C(=O)N[C@@H](CO)C(=O)NCCOCCOCCOCCOCCOCCOCCOCCOCCOCCOCCOCCOCCOCCOCCOCCOCCOCCOCCOCCOCCOCCOCCOCCOCCOCCOCCOCCOCCC(=O)NCC(N)=O)OC(=O)[C@H](C)CCCCCCCCCCCCCC [B6] | not observed | not observed | Fold Induction (human TLR2; 0.49 pg/mL): 16.1; Fold Induction (human TLR2; 1.95 pg/mL): 24.8; Fold Induction (human TLR2; 7.81 pg/mL): 30.4; Fold Induction (human TLR2; 31.25 pg/mL): 35.1; Fold Induction (human TLR2; 125 pg/mL): 34.3; EC50 (human TLR2; agonism of hTLR2, HEK-Blue hTLR2): 0.34 nM |
| 0.666 | 0.688 and 0.591 and 0.718 | 1.099 | 1.080 and 1.097 and 1.121 | 1.521 | 1.478 and 1.513 and 1.573 | 1.978 | 1.903 and 1.897 and 2.133 | 2.252 | 2.093 and 2.297 and 2.367 | 2.540 | 2.531 and 2.544 and 2.545 |  | 2.475 | 2.466 and 2.488 and 2.472 | possesses stimulatory activity | possesses stimulatory activity |  | CCCCCCCCCCCCCC[C@H](C)C(=O)OCC[C@H](CSC[C@H](N)C(=O)N[C@@H](CO)C(=O)NCCOCCOCCOCCOCCOCCOCCOCCOCCOCCOCCOCCOCCOCCOCCOCCOCCOCCOCCOCCOCCOCCOCCOCCOCCOCCOCCOCCOCCC(=O)NCC(N)=O)OC(=O)[C@@H](C)CCCCCCCCCCCCCC [B16] | not observed | not observed |  |
